Experimental data taken from patent US20240059698A1 (Accutar Biotechnology Inc., priority 2022, published 2024).

What was measured:
Type in all cases: cell-based
[1] = tested on: HCC827-YVMA cells (human ERBB2 exon20 insertion mutant A775_G776ins YVMA); assay: Cell growth inhibition (CellTiter-Glo), HCC827-YVMA; conditions: 72 h, HCC827-YVMA cells, 3 days, CellTiter-Glo, read-out: Cell growth inhibition, GI50 (nM) HCC827-YVMA
Method in brief: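 HCC827 cells transduced with lentiviral codon-optimized mutant (ERBB2 A775_G776insYVMA or EGFR V769_D770insASV), endogenous EGFR knocked out by CRISPR, single clone selected. Cells seeded overnight in RPMI/10% FBS, then exposed to serially diluted compounds at 37 °C for 3 days; viability read by CellTiter-Glo luminescence.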

[2] = tested on: HCC827-SVD cells (human EGFR exon 20 insertion mutant D770_N771insSVD); assay: Cell growth inhibition (CellTiter-Glo), HCC827-SVD; conditions: 72 h, 3 days
Method in brief: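 HCC827 cells with endogenous EGFR knocked out and lentivirally expressing the insertion mutant (single clone) were seeded at 5000 cells/well in RPMI with 10% FBS. After overnight, compounds added; 3 days at 37 °C, then CellTiter-Glo luminescence.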

HCC827 cells = assay: Cell growth inhibition (CellTiter-Glo), HCC827; conditions: Homo sapiens, 72 h, 3 days
Protocol: (§1) 2. Cell Growth Inhibition for HCC827, HCC827-SVD, HCC827-ASV, HCC827-YVMA, and A431.
(§2) HCC827(ATCC), HCC827-SVD, HCC827-ASV, and HCC827-YVMA cells were seeded in 96-well plates at 5000 cells/well in 90 μL of RPMI growth medium containing 10% FBS and 1% Penicillin Streptomycin. A431 (ATCC) cells were seeded in 96-well plates at 5000 cells/well in 90 μL of DMEM growth medium containing 10% FBS and 1% Penicillin Streptomycin. Cells were incubated at 37° C. overnight and then administered with 10 μL 10× test compounds prepared in the growth medium at various concentrations. After administration of the compounds, cells were incubated at 37° C. for 3 days. Before the CellTiter-Glo assay, the plates were equilibrated at room temperature for approximately 30 minutes. 100 ul of CellTiter-Glo reagent (Promega) was added to each well. The plates were then incubated at room temperature for 10 minutes and luminescence was recorded by the EnSight® multimode plate reader (PerkinElmer). Table 7 listed selected compounds in cellular growth assay.

A431 cells = assay: Cell growth inhibition (CellTiter-Glo), A431; conditions: Homo sapiens, A-431, 72 h, 3 days
Protocol: as §1, §2

Row | Structure (SMILES) | GI50 [1] [nM] | GI50 [2] [nM] | GI50 (HCC827 cells) [nM] | GI50 (A431 cells) [nM]
1 | C=CC(=O)N1CC(c2c[nH]c3ncnc(Nc4ccc(OCc5ccccn5)c(Cl)c4)c23)C1 [Compound 137, 1-(3-(4-((3-chloro-4-(pyridin-2-ylmethoxy)phenyl)amino)-7H-pyrrolo[2,3-d]pyrimidin-5-yl)azetidin-1-yl)prop-2-en-1-one] | < 50 | < 50 | 50 to 200 | > 1000
2 | C=CC(=O)N1CCC(c2c[nH]c3ncnc(Nc4ccc(Cl)c(Cl)c4F)c23)CC1 [Compound 143, 1-(4-(4-((3,4-dichloro-2-fluorophenyl)amino)-7H-pyrrolo[2,3-d]pyrimidin-5-yl)piperidin-1-yl)prop-2-en-1-one] | < 50 | < 50 | < 50 | > 1000
3 | C=CC(=O)N1CCC(c2c[nH]c3ncnc(Nc4ccc(Oc5ccnc(N(C)C6CC(F)(F)C6)c5)cc4F)c23)CC1 [Compound 132, 1-(4-(4-((4-((2-((3,3-difluorocycloButyl)(methyl)amino)pyridin-4-yl)oxy)-2-fluorophenyl)amino)-7H-pyrrolo[2,3-d]pyrimidin-5-yl)piperidin-1-yl)prop-2-en-1-one] | 50 to 200 | 200 to 1000 | > 1000 | 
4 | C=CC(=O)N1CCC(c2c[nH]c3ncnc(Nc4ccc(OCc5ccc(F)cn5)c(Cl)c4)c23)CC1 [Compound 118, 1-(4-(4-((3-chloro-4-((5-fluoropyridin-2-yl)methoxy)phenyl)amino)-7H-pyrrolo[2,3-d]pyrimidin-5-yl)piperidin-1-yl)prop-2-en-1-one] | < 50 | < 50 | < 50 | 
5 | C=CC(=O)N1CCC(c2c[nH]c3ncnc(Nc4ccc(OCc5ncccn5)c(Cl)c4)c23)CC1 [Compound 128, 1-(4-(4-((3-chloro-4-(pyrimidin-2-ylmethoxy)phenyl)amino)-7H-pyrrolo[2,3-d]pyrimidin-5-yl)piperidin-1-yl)prop-2-en-1-one] | < 50 | < 50 | < 50 | 
6 | C=CC(=O)N1CCC(c2c[nH]c3ncnc(Nc4ccc(OCc5ccnc(-n6ccc(OC)n6)c5)cc4F)c23)CC1 [Compound 92, 1-(4-(4-((2-fluoro-4-((2-(3-methoxy-1H-pyrazol-1-yl)pyridin-4-yl)methoxy)phenyl)amino)-7H-pyrrolo[2,3-d]pyrimidin-5-yl)piperidin-1-yl)prop-2-en-1-one] | 50 to 200 | 50 to 200 | 50 to 200 | 
7 | C=CC(=O)N1CCC(c2c[nH]c3ncnc(Nc4ccc(OCc5cccnn5)c(Cl)c4)c23)CC1 [Compound 120, 1-[4-[4-[3-chloro-4-(pyridazin-3-ylmethoxy)anilino]-7H-pyrrolo[2,3-d]pyrimidin-5-yl]-1-piperidyl]prop-2-en-1-one] | < 50 | < 50 | < 50 | 
8 | C=CC(=O)N1CCC(c2n[nH]c3ncnc(Nc4ccc(Oc5nc(-c6ccc(OC)nc6)cs5)cc4F)c23)CC1 [Compound 189, 1-(4-(4-((2-fluoro-4-((4-(6-methoxypyridin-3-yl)thiazol-2-yl)oxy)phenyl)amino)-1H-pyrazolo[3,4-d]pyrimidin-3-yl)piperidin-1-yl)prop-2-en-1-one] | 200 to 1000 | 200 to 1000 | > 1000 | 
9 | C=CC(=O)N1CCC(c2c[nH]c3ncnc(Nc4ccc(OCc5ccncn5)c(Cl)c4)c23)CC1 [Compound 114, 1-(4-(4-((3-chloro-4-(pyrimidin-4-ylmethoxy)phenyl)amino)-7H-pyrrolo[2,3-d]pyrimidin-5-yl)piperidin-1-yl)prop-2-en-1-one] | < 50 | < 50 | < 50 | 
10 | C=CC(=O)N1CCC(c2c[nH]c3ncnc(Nc4ccc(Oc5ccnc(N6CC(C(F)(F)F)C6)c5)cc4F)c23)CC1 [Compound 107, 1-(4-(4-((2-fluoro-4-((2-(3-(trifluoromethyl)azetidin-1-yl)pyridin-4-yl)oxy)phenyl)amino)-7H-pyrrolo[2,3-d]pyrimidin-5-yl)piperidin-1-yl)prop-2-en-1-one] | 50 to 200 | 200 to 1000 | > 1000 | 
11 | C=CC(=O)N1CCC(c2c[nH]c3ncnc(Nc4ccc(OCc5ccc(C#N)cn5)c(Cl)c4)c23)CC1 [Compound 101, 6-((4-((5-(1-acryloylpiperidin-4-yl)-7H-pyrrolo[2,3-d]pyrimidin-4-yl)amino)-2-chlorophenoxy)methyl)nicotinonitrile] | 50 to 200 | 50 to 200 | 50 to 200 | 
12 | C=CC(=O)N1CCC(c2c[nH]c3ncnc(Nc4ccc(OCc5cccc(C)n5)c(Cl)c4)c23)CC1 [Compound 98, 1-(4-(4-((3-chloro-4-((6-methylpyridin-2-yl)methoxy)phenyl)amino)-7H-pyrrolo[2,3-d]pyrimidin-5-yl)piperidin-1-yl)prop-2-en-1-one] | < 50 | < 50 | < 50 | 
13 | C=CC(=O)N1CCC(c2c[nH]c3ncnc(Nc4ccc(Oc5ccnc(-c6cnn(C)c6)c5)cc4F)c23)CC1 [Compound 125, 1-(4-(4-((2-fluoro-4-((2-(1-methyl-1H-pyrazol-4-yl)pyridin-4-yl)oxy)phenyl)amino)-7H-pyrrolo[2,3-d]pyrimidin-5-yl)piperidin-1-yl)prop-2-en-1-one] | 200 to 1000 | 200 to 1000 | > 1000 | 

Continued, values first:

Row | GI50 [1] [nM] | GI50 [2] [nM] | GI50 (HCC827 cells) [nM] | GI50 (A431 cells) [nM] | Structure (SMILES)
14 | 200 to 1000 | > 1000 | 200 to 1000 |  | C=CC(=O)N1CCC(c2c[nH]c3ncnc(Nc4ccc(OCc5ccc(-c6ccccc6)nc5)cc4F)c23)CC1 [Compound 96, 1-(4-(4-((2-fluoro-4-((6-phenylpyridin-3-yl)methoxy)phenyl)amino)-7H-pyrrolo[2,3-d]pyrimidin-5-yl)piperidin-1-yl)prop-2-en-1-one]
15 | 50 to 200 | 50 to 200 | > 1000 |  | C=CC(=O)N1CCC(c2c[nH]c3ncnc(Nc4ccc(Oc5ccnc(-n6ccc(C(C)C)n6)c5)cc4F)c23)CC1 [Compound 133, 1-(4-(4-((2-fluoro-4-((2-(3-isopropyl-1H-pyrazol-1-yl)pyridin-4-yl)oxy)phenyl)amino)-7H-pyrrolo[2,3-d]pyrimidin-5-yl)piperidin-1-yl)prop-2-en-1-one]
16 | 50 to 200 | 50 to 200 | 50 to 200 |  | C=CC(=O)N1CCC(c2c[nH]c3ncnc(Nc4ccc(OCc5ccnc(Nc6ccccn6)c5)cc4F)c23)CC1 [Compound 93, 1-(4-(4-((2-fluoro-4-((2-(pyridin-2-ylamino)pyridin-4-yl)methoxy)phenyl)amino)-7H-pyrrolo[2,3-d]pyrimidin-5-yl)piperidin-1-yl)prop-2-en-1-one]
17 | 200 to 1000 | 200 to 1000 | 200 to 1000 |  | C=CC(=O)N1CCC(c2c[nH]c3ncnc(Nc4ccc(OCc5ccnc(-c6ccccc6)c5)cc4F)c23)CC1 [Compound 97, 1-(4-(4-((2-fluoro-4-((2-phenylpyridin-4-yl)methoxy)phenyl)amino)-7H-pyrrolo[2,3-d]pyrimidin-5-yl)piperidin-1-yl)prop-2-en-1-one]
18 | < 50 | 50 to 200 | 50 to 200 |  | C=CC(=O)N1CCC(c2c[nH]c3ncnc(Nc4ccc(OCc5ccc(OC)cn5)c(Cl)c4)c23)CC1 [Compound 99, 1-(4-(4-((3-chloro-4-((5-methoxypyridin-2-yl)methoxy)phenyl)amino)-7H-pyrrolo[2,3-d]pyrimidin-5-yl)piperidin-1-yl)prop-2-en-1-one]
19 | 50 to 200 | 50 to 200 | 200 to 1000 |  | C=CC(=O)N1CCC(c2n[nH]c3ncnc(Nc4ccc(Oc5ccc(-c6cc(-c7ccccc7)[nH]c(=O)c6)nc5)c(Cl)c4F)c23)CC1 [Compound 170, 5-(4-((3-(1-acryloylpiperidin-4-yl)-1H-pyrazolo[3,4-d]pyrimidin-4-yl)amino)-2-chloro-3-fluorophenoxy)-6′-phenyl-[2,4′-bipyridin]-2′(1′H)-one]
20 | < 50 | 50 to 200 | < 50 |  | C=CC(=O)N1CCC(c2c[nH]c3ncnc(Nc4ccc(Oc5ccnc(NC6CCC6)c5)cc4F)c23)CC1 [Compound 109, 1-[4-[4-[4-[[2-(cycloButylamino)-4-pyridyl]oxy]-2-fluoro-anilino]-7H-pyrrolo[2,3-d]pyrimidin-5-yl]-1-piperidyl]prop-2-en-1-one]
21 | 200 to 1000 | 200 to 1000 | > 1000 |  | C=CC(=O)N1CCC(c2n[nH]c3ncnc(Nc4ccc(Oc5ccnc(NC(=O)C6CCOCC6)c5)cc4F)c23)CC1 [Compound 194, N-(4-(4-((3-(1-acryloylpiperidin-4-yl)-1H-pyrazolo[3,4-d]pyrimidin-4-yl)amino)-3-fluorophenoxy)pyridin-2-yl)tetrahydro-2H-pyran-4-carboxamide]
